IC50 data for 26 compounds are collected here from patent US9255090B2, “Heterocyclyl derivatives and their use as prostaglandin D2 receptor modulators” (Actelion Pharmaceuticals Ltd., priority 2012, dated 2016).

The target in this assay is hCRTH2 receptor (Homo sapiens (Human), UniProt Q9Y5Y4). The assay is described as follows: hCRTH2 receptor membranes radioligand (3H-PGD2) displacement assay. To be noted: 3H-PGD2 radioligand displacement, HEK293-hCRTH2 membranes. Format: binding. Put shortly:
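Compound was first mixed with buffer, then 3H-PGD2 was added at 2.5 nM, and the reaction was started with hCRTH2 membranes from HEK293 cells at 20 μg/well. After 90 min at room temperature, mixtures were filtered and washed with ice-cold buffer, and retained radioactivity was counted.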
For orientation: Loss of bound radioactivity is the signal in a displacement assay; it reports binding, not function.

A word on the IC50: it is the point on the concentration scale where inhibition reaches its midpoint. Read a low IC50 as inhibition by little substance.

hCRTH2 receptor, sequence (Q9Y5Y4 whole entry): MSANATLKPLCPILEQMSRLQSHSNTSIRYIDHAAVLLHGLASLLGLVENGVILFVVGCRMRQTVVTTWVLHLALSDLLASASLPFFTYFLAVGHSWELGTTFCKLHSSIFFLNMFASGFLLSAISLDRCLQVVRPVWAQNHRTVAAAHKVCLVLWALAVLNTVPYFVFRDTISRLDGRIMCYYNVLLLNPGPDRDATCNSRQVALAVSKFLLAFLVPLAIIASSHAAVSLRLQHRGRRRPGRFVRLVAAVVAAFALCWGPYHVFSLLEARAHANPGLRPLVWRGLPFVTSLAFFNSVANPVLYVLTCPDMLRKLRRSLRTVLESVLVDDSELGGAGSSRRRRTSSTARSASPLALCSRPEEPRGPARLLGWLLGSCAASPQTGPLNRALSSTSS

Turning to `CCOc1ccc(CC(=O)O)cc1-c1ccc(F)c2c1CN(C(=O)Cc1ccccn1)CC2` [Example 340, {4-Ethoxy-3-[5-fluoro-2-(2-pyridin-2-yl-acetyl)-1,2,3,4-tetrahydro-isoquinolin-8-yl]-phenyl}-acetic acid], the IC50 was found to be 897 nM.
Turning to `COc1ccc(CC(=O)O)cc1-c1ccc(F)c2c1CN(C(=O)C1COc3ccccc3C1)CC2` (racemic) [Example 113, (±)-{3-[2-(Chroman-3-carbonyl)-5-fluoro-1,2,3,4-tetrahydro-isoquinolin-8-yl]-4-methoxy-phenyl}-acetic acid], the half-maximal inhibitory concentration (IC50) is 18.6 nM.
In the case of `CC(C)Oc1ccc(CC(=O)O)cc1-c1ccc(F)c2c1CN(C(=O)CC1COc3ccccc31)CC2` (racemic) [Example 298] it was 1.2 nM; in that of `COc1cccc(OCC(=O)O)c1-c1ccc(F)c2c1CN(C(=O)OCc1ccccc1)CC2` [Example 417, 8-(2-Carboxymethoxy-6-methoxy-phenyl)-5-fluoro-3,4-dihydro-1H-isoquinoline-2-carboxylic acid benzyl ester], 23.5 nM.
`COc1ccc(CC(=O)O)cc1-c1ccc(F)c2c1CN(C(=O)COC(C)(C)C)CC2` [Example 47, {3-[2-(2-tert-Butoxy-acetyl)-5-fluoro-1,2,3,4-tetrahydro-isoquinolin-8-yl]-4-methoxy-phenyl}-acetic acid] gave an IC50 of 551 nM.
`O=C(O)Cc1ccc(OC2CC2)c(-c2ccc(F)c3c2CN(C(=O)OCc2ccccc2)CC3)c1` [Example 430, 8-(5-Carboxymethyl-2-cyclopropoxy-phenyl)-5-fluoro-3,4-dihydro-1H-isoquinoline-2-carboxylic acid benzyl ester] showed an IC50 of 14.9 nM.
In the case of `COc1ccc(CC(=O)O)cc1-c1ccc(F)c2c1CN(C(=O)CCCc1ccccc1)CC2` [Example 117, {3-[5-Fluoro-2-(4-phenyl-butyryl)-1,2,3,4-tetrahydro-isoquinolin-8-yl]-4-methoxy-phenyl}-acetic acid] it was 5.41 nM; in that of `CCOc1ccc(CC(=O)O)cc1-c1ccc(F)c2c1CN(C(=O)OCCC(C)(C)OC)CC2` [Example 383, 8-(5-Carboxymethyl-2-ethoxy-phenyl)-5-fluoro-3,4-dihydro-1H-isoquinoline-2-carboxylic acid 3-methoxy-3-methyl-butyl ester], 19 nM; in that of `COc1ccc(CC(=O)O)cc1-c1ccc(F)c2c1CN(C(=O)CC(c1ccccc1)c1ccc(Cl)cc1)CC2` (racemic) [Example 97, (±)-(3-{2-[3-(4-Chloro-phenyl)-3-phenyl-propionyl]-5-fluoro-1,2,3,4-tetrahydro-isoquinolin-8-yl}-4-methoxy-phenyl)-acetic acid], 48.1 nM.
As for `COc1ccc(CC(=O)O)cc1-c1ccc(F)c2c1CN(C(=O)[C@@H]1C[C@H]1c1ccccc1Cl)CC2` (racemic) [Example 3, (±)-(3-{2-[trans-2-(2-Chloro-phenyl)-cyclopropanecarbonyl]-5-fluoro-1,2,3,4-tetrahydro-isoquinolin-8-yl}-4-methoxy-phenyl)-acetic acid], the figure is 2.11 nM.
In the case of `COc1ccc(CC(=O)O)cc1-c1ccc(C(F)(F)F)c2c1CN(C(=O)OCc1ccccc1)CC2` [Example 158, 8-(5-Carboxymethyl-2-methoxy-phenyl)-5-trifluoromethyl-3,4-dihydro-1H-isoquinoline-2-carboxylic acid benzyl ester], the concentration for half-maximal inhibition (IC50) stood at 67.8 nM.
The compound `COc1ccc(CC(=O)O)cc1-c1ccc(F)c2c1CN(C(=O)COc1cccnc1)CC2` [Example 94, (3-{5-Fluoro-2-[2-(pyridin-3-yloxy)-acetyl]-1,2,3,4-tetrahydro-isoquinolin-8-yl}-4-methoxy-phenyl)-acetic acid] gave an IC50 of 418 nM.
In turn, `CCOc1ccc(CC(=O)O)cc1-c1ccc(F)c2c1CN(C(=O)CCc1cccc(F)c1)CC2` [Example 311, (4-Ethoxy-3-{5-fluoro-2-[3-(3-fluoro-phenyl)-propionyl]-1,2,3,4-tetrahydro-isoquinolin-8-yl}-phenyl)-acetic acid] showed an IC50 of 3.9 nM.
Consider `COc1ccc(CC(=O)O)cc1-c1ccc(F)c2c1CN(C(=O)CC1CCOc3c(F)cccc31)CC2` (racemic) [Example 246], for which the concentration for half-maximal inhibition (IC50) was determined as 22.3 nM.
Consider `O=C(O)COc1cc(Cl)cc(-c2ccc(F)c3c2CN(C(=O)OCc2ccccc2)CC3)c1` [Example 144, 8-(3-Carboxymethoxy-5-chloro-phenyl)-5-fluoro-3,4-dihydro-1H-isoquinoline-2-carboxylic acid benzyl ester], for which the half-maximal inhibitory concentration (IC50) turned out to be 86.2 nM.
As for `COc1ccc(CC(=O)O)cc1-c1ccc(F)c2c1CN(C(=O)CC1(C)CCCc3ccccc31)CC2` (racemic) [Example 239], the figure is 28.4 nM; as for `CCCNC(=O)N1CCc2c(F)ccc(-c3cc(CC(=O)O)ccc3OC)c2C1` [Example 137, [3-(5-Fluoro-2-propylcarbamoyl-1,2,3,4-tetrahydro-isoquinolin-8-yl)-4-methoxy-phenyl]-acetic acid], 764 nM; as for `O=C(O)COc1ccc(Cl)c(-c2ccc(Cl)c3c2CN(C(=O)OCc2ccccc2)CC3)c1` [Example 178, 8-(5-Carboxymethoxy-2-chloro-phenyl)-5-chloro-3,4-dihydro-1H-isoquinoline-2-carboxylic acid benzyl ester], 17.5 nM.
The compound `COc1ccc(CC(=O)O)cc1-c1ccc(F)c2c1CN(C(=O)[C@H](C)c1ccccc1)CC2` [Example 255, {3-[5-Fluoro-2-((R)-2-phenyl-propionyl)-1,2,3,4-tetrahydro-isoquinolin-8-yl]-4-methoxy-phenyl}-acetic acid] displayed a half-inhibitory concentration (IC50) of 981 nM.
`O=C(O)Cc1ccc(-c2ccc(F)c3c2CN(C(=O)OCc2ccccc2)CC3)c(Cl)c1` [Example 165, 8-(4-Carboxymethyl-2-chloro-phenyl)-5-fluoro-3,4-dihydro-1H-isoquinoline-2-carboxylic acid benzyl ester]: the 50% inhibitory concentration (IC50) came out at 26.3 nM.
As for `CCOc1cc(CC(=O)O)ccc1-c1ccc(F)c2c1CN(C(=O)CC1(C)CCCc3ccccc31)CC2` (racemic) [Example 326], the figure is 2 nM; as for `CCC(Oc1ccc(OC)c(-c2ccc(F)c3c2CN(C(=O)OCc2ccccc2)CC3)c1)C(=O)O` (racemic) [Example 415], 337 nM.
`CCOc1cc(CC(=O)O)ccc1-c1ccc(F)c2c1CN(C(=O)CC1CCc3ccccc31)CC2` (racemic) [Example 233] displayed an IC50 of 1.1 nM.
`O=C(O)CCCOc1ccc(F)cc1-c1cccc2c1CN(C(=O)OCc1ccccc1)CC2` [Example 174, 8-[2-(3-Carboxy-propoxy)-5-fluoro-phenyl]-3,4-dihydro-1H-isoquinoline-2-carboxylic acid benzyl ester]: the half-inhibitory concentration (IC50) came to 289 nM.
As for `C[C@H](CC(=O)N1CCc2c(F)ccc(-c3cc(CC(=O)O)ccc3OCC(F)(F)F)c2C1)c1ccccc1` [Example 301, [3-[5-Fluoro-2-((R)-3-phenyl-butyryl)-1,2,3,4-tetrahydro-isoquinolin-8-yl]-4-(2,2,2-trifluoro-ethoxy)-phenyl]-acetic acid], the IC50 worked out at 3.6 nM.
On to `COc1ccc(CC(=O)O)cc1-c1ccc(F)c2c1CN(C(=O)C1OCCc3ccccc31)CC2` (racemic) [Example 273], for which the half-inhibitory concentration (IC50) was 683 nM.
